# Experimental data reported in patent publication US20200306210A1 (ZOGENIX INTERNATIONAL LIMITED, priority 2017, published 2020).
# Where a name gives a salt, the structure may show the parent alone.
# System: children and young adults with Dravet syndrome
# Assay: Study 1: randomized, double-blind, placebo-controlled trial of ZX008, monthly convulsive seizure frequency (MCSF)
# Assay type: in vivo, Human
# Settings: for Longest seizure free interval, estimate of median treatment difference: Hodges-Lehman estimator; for Greater reduction in mean MCSF compared with placebo: 14-week treatment period; for Near-seizure freedom (0 or a single seizure during 14-week Treatment Period), % of subjects / Near-seizure freedom (0 or a single seizure during 14-week Treatment Period), number of subjects: post-hoc analysis
# Description: Human patients, age 2 to 18 years, inclusive, having a documented medical history to support a clinical diagnosis of Dravet syndrome and a history of seizures (either generalized tonic-clonic or unilateral clonic or bilateral clonic, and prolonged) were recruited, and selected for inclusion in the study according to criteria comprising a combination of age, physical and psychological characteristics, and (optionally) resistance to treatment with conventional therapies. Included subjects were assessed over the course of this 22-week study. The study protocols were reviewed and approved by the institutional review board or ethics committee for each study site before any study activation at the site. All patients or their legal representatives signed informed consent/assent prior to enrolling in the trial.
# Subjects had ≥4 convulsive seizures (tonic, tonic atonic, tonic-clonic, clonic) per 4-week period for past 12 weeks prior to screening, by parent/guardian report to investigator or investigator medical notes.
# Potential subjects enrolled in a 6-week baseline to establish seizure frequency and determine eligibility. Seizures were documented by parents or caregivers in an electronic study diary as to date, time of day, duration, and seizure type. To qualify for randomization each subject must have had ≥6 convulsive seizures during the baseline period with ≥2 in the first 3 weeks and ≥2 in the last 3 weeks. For this study convulsive seizures were defined as hemiclonic, tonic, clonic, tonic-atonic, generalized tonic-clonic, and focal with clear observable motor signs. The six-week Baseline Period started with a screening visit followed by an observation period where subjects were assessed for baseline seizure activity based on recordings of daily seizure activity entered into the diary.
# Randomization was double-blind and stratified by age group (<6 years, ≥6 years) across treatment groups. A placebo solution, identical in appearance and taste, was also provided. Daily doses were administered with food in 2 equal doses, one in the morning and one in the evening approximately 12 hours apart. […] The other groups underwent dummy titrations to maintain the blind. Patients were maintained on their final dose for an additional 12 weeks (the Maintenance Period). At the conclusion of the Treatment Period (Titration plus Maintenance), eligible patients electing to continue in an optional open-label extension (OLE) study underwent a 2-week transition period, whereas patients exiting the study underwent a 2-week taper and follow-up.
# ZX008 was supplied as an oral solution in concentrations of 1.25, 2.5, and 5 mg/mL. Subjects will be randomized to receive 1 of 2 doses of ZX008 (0.2 mg/kg/day, 0.8 mg/kg/day; up to 30 mg/day) or placebo. Study medication will be administered twice a day (BID) in equally divided doses with food. To the placebo group, as a negative control, an oral solution not containing fenfluramine was administered.
# Monthly convulsive seizure frequency (MCSF) was expressed per 28 days. The primary end point was the change in mean MCSF) between the baseline period and the combined titration and maintenance periods in subjects treated with ZX008 0.8 mg/kg/day compared with the group treated with placebo. Five key secondary end points were pre-specified: the comparison of the ZX008 0.2 mg/kg/day group with placebo for the change in MCSF between baseline and the combined titration and maintenance periods, comparison of both ZX008 groups independently with placebo on the proportion of subjects who achieved a ≥50% reduction from baseline in MCSF and the comparison of both ZX008 groups with placebo on the longest seizure-free interval observed in each group. A serial gatekeeping procedure was used to maintain the simultaneous type 1 error rate at α=0.05 across the analyses of the primary and 5 key secondary end points. […]
smiles,measurement,setting,value
"CCNC(C)Cc1cccc(C(F)(F)F)c1 (stereo not shown) [ZX008, fenfluramine hydrochloride]","Longest seizure free interval, estimate of median treatment difference",0.2 mg/kg/day vs placebo,-5.0 days
same,Greater reduction in mean MCSF compared with placebo,0.2 mg/kg/day,33.7%
same,Reduction from baseline in mean MCSF,"0.2 mg/kg/day, after 6 weeks of treatment",−26.3%
same,Reduction from baseline in mean MCSF,"0.2 mg/kg/day, after 10 weeks of treatment",−22.4%
same,Reduction from baseline in mean MCSF,"0.2 mg/kg/day, after 14 weeks of treatment",−22.2%
same,"100% reduction (seizure freedom during entire 14-week treatment period), n of subjects","0.2 mg/kg/day, n = 39",3
same,"Longest seizure free interval, median","0.2 mg/kg/day, n = 39",14 days
same,"Percent change in convulsive seizure frequency per 28 days, LS means ± SE","0.2 mg/kg/day, n = 39",−22.50 ± 9.28%
same,"Percent change in convulsive seizure frequency per 28 days, median","0.2 mg/kg/day, n = 39",−37.6%
same,"Responder analysis ≥25% reduction in MCSF, % of subjects","0.2 mg/kg/day, n = 39",(61.5%)
same,"Responder analysis ≥25% reduction in MCSF, OR vs placebo","0.2 mg/kg/day, n = 39",3.80
same,"Responder analysis ≥25% reduction in MCSF, n of subjects","0.2 mg/kg/day, n = 39",24
same,"Responder analysis ≥50% reduction in MCSF, % of subjects","0.2 mg/kg/day, n = 39",(41.0%)
same,"Responder analysis ≥50% reduction in MCSF, OR vs placebo","0.2 mg/kg/day, n = 39",10.10
same,"Responder analysis ≥50% reduction in MCSF, n of subjects","0.2 mg/kg/day, n = 39",16
same,"Responder analysis ≥75% reduction in MCSF, % of subjects","0.2 mg/kg/day, n = 39",(20.5%)
same,"Responder analysis ≥75% reduction in MCSF, OR vs placebo","0.2 mg/kg/day, n = 39",10.46
same,"Responder analysis ≥75% reduction in MCSF, n of subjects","0.2 mg/kg/day, n = 39",8
same,"Change in convulsive seizure frequency per 28 days, % Difference from placebo, LS mean (key secondary endpoint)","0.2 mg/kg/day, n = 39, baseline vs titration + maintenance",−33.74%
same,"Near-seizure freedom (0 or a single seizure during 14-week Treatment Period), % of subjects",0.2 mg/kg/day,12.8%
same,"Near-seizure freedom (0 or a single seizure during 14-week Treatment Period), number of subjects",0.2 mg/kg/day,5
same,"Longest seizure free interval, estimate of median treatment difference",0.8 mg/kg/day vs placebo,-11.5 days
same,Greater reduction in mean MCSF compared with placebo,0.8 mg/kg/day,63.9%
same,Reduction from baseline in mean MCSF,"0.8 mg/kg/day, after 6 weeks of treatment",−62.4%
same,Reduction from baseline in mean MCSF,"0.8 mg/kg/day, after 10 weeks of treatment",−61.8%
same,Reduction from baseline in mean MCSF,"0.8 mg/kg/day, after 14 weeks of treatment",−62.2%
same,"100% reduction (seizure freedom during entire 14-week treatment period), n of subjects","0.8 mg/kg/day, n = 40",3
same,"Longest seizure free interval, median","0.8 mg/kg/day, n = 40",20.5 days
same,"Percent change in convulsive seizure frequency per 28 days, median","0.8 mg/kg/day, n = 40",−72.4%
same,"Responder analysis ≥25% reduction in MCSF, % of subjects","0.8 mg/kg/day, n = 40",(92.5%)
same,"Responder analysis ≥25% reduction in MCSF, OR vs placebo","0.8 mg/kg/day, n = 40",42.91
same,"Responder analysis ≥25% reduction in MCSF, n of subjects","0.8 mg/kg/day, n = 40",37
same,"Responder analysis ≥50% reduction in MCSF, % of subjects","0.8 mg/kg/day, n = 40",(70.0%)
same,"Responder analysis ≥50% reduction in MCSF, OR vs placebo","0.8 mg/kg/day, n = 40",29.10
same,"Responder analysis ≥50% reduction in MCSF, n of subjects","0.8 mg/kg/day, n = 40",28
same,"Responder analysis ≥75% reduction in MCSF, OR vs placebo","0.8 mg/kg/day, n = 40",49.49
same,"Responder analysis ≥75% reduction in MCSF, n of subjects","0.8 mg/kg/day, n = 40",18
same,"Change in convulsive seizure frequency per 28 days, % Difference from placebo, LS mean (primary endpoint)","0.8 mg/kg/day, n = 40, baseline vs titration + maintenance",−63.89%
same,"Near-seizure freedom (0 or a single seizure during 14-week Treatment Period), % of subjects",0.8 mg/kg/day,25%
same,"Near-seizure freedom (0 or a single seizure during 14-week Treatment Period), number of subjects",0.8 mg/kg/day,10
